Results: patent US12391675B2, “NLRP3 modulators” (INNATE TUMOR IMMUNITY, INC., priority 2019, dated 2025)

Target: T1, NLRP3 (Homo sapiens, UniProt Q96P20)
T1 construct: host or cells: PMA-differentiated THP-1 cells
Test: Measurement of IL-1β production in PMA-differentiated THP-1 cells (NLRP3 hIL1B EC50)
Type: cell-based
Procedure: Measurement of IL-1β Production in PMA-Differentiated THP-1 Cells
THP-1 cells were purchased from the American Type Culture Collection and sub-cultured according to instructions from the supplier. Prior to experiments, cells were cultured in RPMI 1640 containing 10% heat inactivated FBS, penicillin (100 units/ml) and streptomycin (100 μg/ml), and maintained in log phase prior to experimental setup. Prior to the experiment THP-1 were treated with PMA (Phorbol 12-myristate 13-acetate) (10 μg/ml) for 24 hours. The day of the experiment the media was removed and attaching cells were treated with trypsin for 2 minutes, cells were then collected, washed with PBS (phosphate buffer saline), spin down, resuspended in 2% heat inactivated FBS with RPMI at a concentration of 1×10^6 cells/ml, and 100 μl was plated in a 96 well plate. Compounds were dissolved in dimethyl sulfoxide (DMSO) and added to the culture medium to achieve desired concentration (e.g. 100, 30, 10, 3, 1, 0.3 or 0.1 μM). Cells were incubated with compounds for 4 hours. Cell free supernatant was collected and the production of IL-1β was evaluated by ELISA. A vehicle only control was run concurrently with each experiment. Final DMSO concentration was 1%.
Measurement of IL-1β Production in PMA-Differentiated THP-1 Cells (Alternative Procedure)
THP-1 cells were purchased from the American Type Culture Collection and sub-cultured according to instructions from the supplier. Prior to experiments, cells were cultured in RPMI 1640 containing 10% heat inactivated FBS, penicillin (100 units/ml), streptomycin (100 μg/ml), HEPES (10 mM) and sodium pyruvate (1 mM) and maintained in log phase prior to experimental setup. Prior to the experiment, THP-1 cells were treated with PMA (Phorbol 12-myristate 13-acetate) (20 μg/ml) overnight. The day of the experiment, the media was removed and attached cells were treated with trypsin for 2 minutes, cells were then collected, washed with PBS (phosphate buffer saline), pelleted by centrifugation and resuspended in 2% heat inactivated FBS with RPMI at a concentration of 50,000 cells/well in a 384 well plate. Cell free supernatant was collected and the production of IL-1β was evaluated by ELISA. Compounds were dissolved in dimethyl sulfoxide (DMSO) and added to the culture medium to achieve desired concentration (e.g. 100, 30, 10, 3, 1, 0.3 or 0.1 μM). Cells were incubated with compounds for 2 hours. A vehicle only control was run concurrently with each experiment. Final DMSO concentration was 1%.
Measurement of IL-1β Production—hTRF Protocol (Second Alternative Procedure)
Serial dilutions of compounds in DMSO were added to low volume 384 well plates at 100 nl/well using an ECHO 550 acoustic dispenser (Labcyte) to achieve final starting concentration of 10 μM in assay.
THP-1 cells in RPMI (Gibco, 11875) media with 10% FBS at a density of 1×10^6 cell/ml in a T175 flask were treated with a final concentration of phorbol 12-myristate 13-acetate (PMA) (Sigma, P1585) of 50 ng/ml overnight at 37° C. at 5% CO2 for differentiation. Cells were harvested the next day after rinsing well wth dPBS using 0.5% trypsin. A cell solution was prepared of 1×10^6 cells/ml for 50,000 cells in 50 μl/well in RPMI media with 2% FBS. Cells were plated using a multichannel pipette onto the compound dilutions in Greiner, 384 well, black clear bottom tissue culture treated plates (781090). The plates were incubated in 37° C. incubator at 5% CO2 for 2 hours.
After the 2 hour incubation, the cell plates were spun in the centrifuge for 5 minutes at 1200 rpm. Using the Felix (CyBio), 8 μl of the supernatant was transferred to 384 well, low volume, white proxy plates. (Perkin Elmer, 6008230). A human IL1beta hTRF kit was used to analyze the supernatant (CISBIO, 62HIL1BPEG). The kit instructions were followed for preparing the IL1Beta standard curve and then the antibodies from the kit were diluted 1:40 rather than 1:20 as kit instructed. […]

T1 sequence (Q96P20 whole entry): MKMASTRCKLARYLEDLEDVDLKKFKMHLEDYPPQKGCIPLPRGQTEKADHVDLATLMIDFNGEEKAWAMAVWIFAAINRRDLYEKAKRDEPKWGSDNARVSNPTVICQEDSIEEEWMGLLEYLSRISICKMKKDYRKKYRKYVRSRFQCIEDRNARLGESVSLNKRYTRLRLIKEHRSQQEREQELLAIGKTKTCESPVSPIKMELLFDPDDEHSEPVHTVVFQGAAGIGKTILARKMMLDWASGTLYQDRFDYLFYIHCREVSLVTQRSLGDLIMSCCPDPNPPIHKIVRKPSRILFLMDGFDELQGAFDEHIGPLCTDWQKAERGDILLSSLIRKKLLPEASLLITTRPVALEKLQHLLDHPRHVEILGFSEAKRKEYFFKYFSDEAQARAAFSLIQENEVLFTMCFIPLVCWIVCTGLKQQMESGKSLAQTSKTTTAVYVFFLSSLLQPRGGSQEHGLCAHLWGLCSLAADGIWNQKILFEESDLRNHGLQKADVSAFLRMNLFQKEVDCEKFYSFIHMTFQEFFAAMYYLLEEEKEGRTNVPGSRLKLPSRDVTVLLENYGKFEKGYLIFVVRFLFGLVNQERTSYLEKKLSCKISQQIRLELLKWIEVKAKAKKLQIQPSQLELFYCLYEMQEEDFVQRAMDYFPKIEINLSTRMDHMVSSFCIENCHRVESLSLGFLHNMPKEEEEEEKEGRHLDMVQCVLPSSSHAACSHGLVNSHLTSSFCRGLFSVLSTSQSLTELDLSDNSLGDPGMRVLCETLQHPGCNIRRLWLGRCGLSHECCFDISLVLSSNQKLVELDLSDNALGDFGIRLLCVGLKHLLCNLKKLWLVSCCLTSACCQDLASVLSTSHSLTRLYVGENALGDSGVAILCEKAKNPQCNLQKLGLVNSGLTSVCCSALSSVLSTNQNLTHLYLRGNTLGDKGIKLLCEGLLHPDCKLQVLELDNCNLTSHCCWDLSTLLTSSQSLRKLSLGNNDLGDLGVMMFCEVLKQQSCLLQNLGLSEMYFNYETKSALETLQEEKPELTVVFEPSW

In order of rising EC50:
1. Nc1cc(NC2CC3(CC(O)C3)C2)c2ccc(-c3ccn[nH]3)cc2n1 (single isomer, unassigned) [Example 26A, (Sa)-6-(2-amino-7-(1H-pyrazol-5-yl)quinolin-4-ylamino)spiro[3.3]heptan-2-ol]  30 nM
2. Nc1nc(NC2CC23CC3)c2ccc(-c3cc[nH]n3)cc2n1 (single isomer, unassigned) [Example 36A]  85 nM
3. Nc1nc(N[C@@H]2C[C@H]3CC[C@@H]2O3)c2ccc(-c3ccn[nH]3)cc2n1 (racemic) [Example 1, rac-N4-((1R,2S,4S)-7-oxabicyclo[2.2.1]heptan-2-yl)-7-(1H-pyrazol-5-yl)quinazoline-2,4-diamine]  120 nM
4. Nc1nc(NC2CC23CC3)c2ccc(-c3cc[nH]n3)cc2n1 (single isomer, unassigned) [Example 36B]  130 nM
5. Nc1nc(NC2CC3CC(O)C2C3)c2ccc(-c3ccn[nH]3)cc2n1 (single isomer, unassigned) [Example 41A]  160 nM
6. Nc1nc(N[C@H]2CC3CC2[C@@H](O)C3)c2ccc(-c3ccn[nH]3)cc2n1 (mixture of isomers) [Example 40, rac-(2S,6S)-6-((2-amino-7-(1H-pyrazol-5-yl)quinazolin-4-yl)amino)bicyclo[2.2.1]heptan-2-ol]  220 nM
7. Nc1cc(N[C@H]2C[C@@H]3CC[C@H]2O3)c2ccc(-c3ccn[nH]3)cc2n1 (racemic) [Example 15, rac-N4-((1R,2S,4S)-7-oxabicyclo[2.2.1]heptan-2-yl)-7-(1H-pyrazol-5-yl)quinoline-2,4-diamine]  250 nM
8. Nc1cc(NC2CC3(CC(O)C3)C2)c2ccc(-c3ccn[nH]3)cc2n1 (single isomer, unassigned) [Example 26B, (Ra)-6-(2-amino-7-(1H-pyrazol-5-yl)quinolin-4-ylamino)spiro[3.3]heptan-2-ol]  250 nM
9. Nc1cc(N[C@H]2C[C@@H]3C[C@@H](O)[C@H]2O3)c2ccc(-c3ccn[nH]3)cc2n1 (single isomer, unassigned) [Example 32B]  250 nM
10. Nc1nc(N[C@H]2[C@@H]3COC[C@@H]32)c2ccc(-c3ccn[nH]3)cc2n1 [Example 4]  310 nM
11. Nc1nc(N[C@@H]2[C@@H]3COC[C@@H]32)c2ccc(-c3ccn[nH]3)cc2n1 [Example 6]  310 nM
12. CC(C)(C)OC(=O)N1CCC2(CC1)CC2Nc1nc(N)nc2cc(-c3cc[nH]n3)ccc12 (racemic) [Example 27, (rac)-tert-butyl 1-((2-amino-7-(1H-pyrazol-3-yl)quinazolin-4-yl)amino)-6-azaspiro[2.5]octane-6-carboxylate]  390 nM
13. Nc1nc(N[C@@H]2C[C@@H]3CC[C@H]2O3)c2ccc(-c3ccn[nH]3)cc2n1 (racemic) [Example 29, rac-N4-((1R,2R,4S)-7-oxabicyclo[2.2.1]heptan-2-yl)-7-(1H-pyrazol-5-yl)quinazoline-2,4-diamine]  500 nM
14. Nc1nc(N[C@@H]2C[C@H]3C[C@@H](O)C[C@H]3C2)c2ccc(-c3ccn[nH]3)cc2n1 [Example 2, (2r,3aR,5r,6aS)-5-((2-amino-7-(1H-pyrazol-5-yl)quinazolin-4-yl)amino)octahydropentalen-2-ol]  600 nM
15. Nc1cc(N[C@@H]2C[C@@H]3CC[C@H]2O3)c2ccc(-c3ccn[nH]3)cc2n1 (racemic) [Example 30, rac-N4-((1R,2R,4S)-7-oxabicyclo[2.2.1]heptan-2-yl)-7-(1H-pyrazol-5-yl)quinoline-2,4-diamine]  650 nM
16. Nc1nc(N2CC3CC2CO3)c2ccc(-c3cc[nH]n3)cc2n1 (racemic) [Example 9, rac-4-(2-oxa-5-azabicyclo[2.2.1]heptan-5-yl)-7-(1H-pyrazol-3-yl)quinazolin-2-amine]  680 nM
17. Nc1nc(N[C@H]2C[C@@H]3C[C@H]2C[C@H]3O)c2ccc(-c3ccn[nH]3)cc2n1 (racemic) [Example 42]  740 nM
18. CC(C)(C)OC(=O)N1CCC2(CC1)CC2Nc1nc(N)nc2cc(-c3cc[nH]n3)ccc12 (single isomer, unassigned) [Example 28B]  780 nM
19. Nc1nc(NC2C3CCC(C3)C2CO)c2ccc(-c3ccn[nH]3)cc2n1 (centres unmarked) [Example 5]  810 nM
20. Nc1nc(NC2CC3CC(O)C2C3)c2ccc(-c3ccn[nH]3)cc2n1 (single isomer, unassigned) [Example 41B]  960 nM
21. Nc1cc(N[C@H]2C3CCC(C3)[C@H]2CO)c2ccc(-c3ccn[nH]3)cc2n1 (single isomer, unassigned) [Example 18B]  980 nM
22. Nc1nc(NC2CC3(CC(O)C3)C2)c2ccc(-c3ccn[nH]3)cc2n1 (centres unmarked) [Example 3, 6-((2-amino-7-(1H-pyrazol-5-yl)quinazolin-4-yl)amino)spiro[3.3]heptan-2-ol]  1000 nM
23. Nc1nc(N[C@H]2C[C@@H]3C[C@H]2C[C@H]3O)c2ccc(-c3ccn[nH]3)cc2n1 (single isomer, unassigned) [Example 43B]  1110 nM
24. Nc1nc(N[C@H]2C[C@H]3O[C@@H]2C[C@@H]3O)c2ccc(-c3ccn[nH]3)cc2n1 (racemic) [Example 31A, rac-(1R,2S,4R,5S)-5-((2-amino-7-(1H-pyrazol-5-yl)quinazolin-4-yl)amino)-7-oxabicyclo[2.2.1]heptan-2-ol]  1210 nM
25. Nc1cc(N[C@@H]2C[C@H]3C[C@@H]2[C@@H](O)C3)c2ccc(-c3ccn[nH]3)cc2n1 (racemic) [Example 46, rac-(1S,2S,4R,6R)-6-((2-amino-7-(1H-pyrazol-5-yl)quinolin-4-yl)amino)bicyclo[2.2.1]heptan-2-ol]  1330 nM
26. Nc1nc(N2C[C@H]3C[C@@H]2CO3)c2ccc(-c3cc[nH]n3)cc2n1 (single isomer, unassigned) [Example 10]  1600 nM
27. Nc1nc(N[C@H]2C[C@@H]3C[C@H]2C[C@H]3O)c2ccc(-c3ccn[nH]3)cc2n1 (single isomer, unassigned) [Example 43A]  1640 nM
28. Nc1cc(N[C@H]2[C@@H]3CC[C@@H](C3)[C@H]2CO)c2ccc(-c3ccn[nH]3)cc2n1 (racemic) [Example 17, rac-((1R,2S,3R,4S)-3-((2-amino-7-(1H-pyrazol-5-yl)quinolin-4-yl)amino)bicyclo[2.2.1]heptan-2-yl)methanol]  1670 nM
29. Nc1nc(N[C@@H]2C[C@H]3C[C@H](O)[C@@H]2O3)c2ccc(-c3ccn[nH]3)cc2n1 (racemic) [Example 31B, rac-(1R,2S,4S,6R)-6-((2-amino-7-(1H-pyrazol-5-yl)quinazolin-4-yl)amino)-7-oxabicyclo[2.2.1]heptan-2-ol]  1850 nM
30. CC(C)(C)OC(=O)N1CCC2(CC1)CC2Nc1nc(N)nc2cc(-c3cc[nH]n3)ccc12 (single isomer, unassigned) [Example 28A]  1940 nM
31. Nc1nc(N[C@H]2C[C@@H]3C[C@H]2[C@@H](O)C3)c2ccc(-c3ccn[nH]3)cc2n1 (single isomer, unassigned) [Example 45A]  2120 nM
32. Nc1nc(N[C@H]2C[C@@H]3C[C@H]2[C@@H](O)C3)c2ccc(-c3ccn[nH]3)cc2n1 (racemic) [Example 44, rac-(1R,2S,4S,6S)-6-((2-amino-7-(1H-pyrazol-5-yl)quinazolin-4-yl)amino)bicyclo[2.2.1]heptan-2-ol]  2370 nM
33. Nc1cc(N[C@H]2C3CCC(C3)[C@H]2CO)c2ccc(-c3ccn[nH]3)cc2n1 (single isomer, unassigned) [Example 18]  3000 nM
34. Nc1nc(N[C@H]2C[C@@H]3C[C@H]2[C@@H](O)C3)c2ccc(-c3ccn[nH]3)cc2n1 (single isomer, unassigned) [Example 45B]  3000 nM
35. Nc1nc(N[C@@H]2C[C@H]3CC[C@]2(CO)O3)c2ccc(-c3ccn[nH]3)cc2n1 (racemic) [Example 8]  3700 nM
